This note sets out measurements from patent publication US20250115894A1, “Three-dimensional model of exposed microbial membranes at gas-liquid interface and preparation method thereof” (priority 2023, published 2025).

Data set [1] concerns Recombinant Escherichia coli strains with the rec A genetic pathway. As to the kind of experiment: Fluorescent signal of rec A recombinant strains exposed to dimethyl sulfate solution, immobilized versus not immobilized. Format: cell-based. Particulars: 50 mg/L solution of dimethyl sulfate.
Data set [2] concerns 29 recombinant Escherichia coli strains carrying plasmids with different genetic pathways. Description: In-situ gaseous exposure genotoxicity detection with hydrogel beads containing immobilized recombinant Escherichia coli strains. It is filed as cell-based. An excerpt: Embodiment 5: Immobilization of 29 recombinant Escherichia coli strains carrying plasmids with different genetic pathways by hydrogel beads for genotoxicity detection of pollutants, including DNA damage, DNA repair, and oxidative stress: • (1) The nutrient in the core was a modified M9 medium, including MgCl2, CaCl2), NaCl, NH4Cl, Tris-HCl (pH-7.4) buffer, and glucose, to ensure the continued survival of the recombinant Escherichia coli strains when exposed at the air-liquid interface. • (2) The hydrogel beads containing immobilized 29 recombinant Escherichia coli strains, were assembled in a specially designed gaseous exposure system. Different concentrations (ranging from 20 to 500 mg/m^3) of gaseous methanesulfonic acid methyl ester were introduced into the exposure system for simultaneous exposure. […] In summary, a rapid analysis of the genotoxicity fingerprint of gaseous methanesulfonic acid methyl ester was conducted from the perspective of in-situ exposure.

[3] abbreviates: 20 to 500 mg/m^3, as exposure concentration increased.

Structures are written as SMILES. Where a name gives a salt, the structure may show the parent alone.

Regarding `COS(=O)(=O)OC` [dimethyl sulfate], the “Fluorescent signals of rec A strains immobilized in hydrogel beads compared to not immobilized” value in data set [1] is “stronger fluorescent signals”.
For the compound `COS(C)(=O)=O` [methanesulfonic acid methyl ester], in data set [2] (20 to 500 mg/m^3), the “Ina A gene expression (SOS response)” value is on record as “downregulation”, the “pol B gene pathway expression (DNA damage/repair)” value is “significant upregulation”, the “rec A gene pathway expression (DNA damage/repair)” value is on record as “significant upregulation” and the “rec N gene pathway expression (DNA damage/repair)” value is listed as “significant upregulation”. The “sox R gene expression (SOS response)” value in data set [2] (20 to 500 mg/m^3) is listed as “downregulation”. In data set [2] (setting [3]), the “Kat G gene expression (oxidative stress)” value was “significant upregulation” and the “ahp C gene expression (oxidative stress)” value is recorded as “significant upregulation”.
